Measured values taken from patent US20250009763A1, “METHODS FOR EXTENDING LIFESPAN AND/OR DELAYING AGING” (priority 2023, published 2025).

Experiments:
aged C57BL/6J mice [1] = test: Rotarod test; format: in vivo, mouse; conditions: rotarod at constant or accelerating speed; mid-term and long-term; versus SD-fed mice; FIGS. 4H-4I
Procedure: The male C57BL/6J mice were subjected to a rotarod test at 88 weeks (mid-term) and 112 weeks (long-term) of age. The mice underwent a 3-day habituation period, during which they were placed on the rotarod at a constant speed (4 rpm), and were required to remain on the rotarod for 1 minute at a time every day. To conduct the actual test, each mouse was subjected to five trials, with a 10-15 minute rest period between each trial. For each trial, the tests for the constant and accelerated speeds were conducted sequentially according to the following schedule: During a 5-minute trial period, a run consisted of an initial constant rotating speed of 4 rpm and a subsequent accelerated rotating speed accelerated from 4 to 40 rpm was performed 5 times. […] The latency to falling was recorded, and the average latency to falling was calculated for each trial. Data are presented as the average of the 5 trials. Mid-term: SD, n=30; PN6, n=8; long-term: SD, n=22; PN6, n=8.

[2] = tested on: intracellular NAD^+ of WT yeast cells (BY4741); test: Intracellular NAD^+ content; format: cell-based, Saccharomyces cerevisiae; conditions: 25 μM, 2 hours; FIG. 2B
Procedure: WT yeast cells (BY4741; […] per group) were incubated in the presence of DMSO (control) or PN6 (25 μM), or cultured in YEPD medium adjusted to CR 0.1%, for 2 hours, before being harvested. The harvested cells were extracted with 250 μl of 1 M glacial formic acid saturated with butanol, incubated for 30 minutes on ice. Then, 62.5 μl of 100% trichloroacetic acid (TCA) (w/v) was added to each sample, and the samples were incubated on ice for an additional 15 minutes. The samples were pelleted by centrifugation at 17,000×g and 4° C. for 5 minutes, and the supernatant was transferred to another eppendorf tube. […]
For analysis, each supernatant or standard sample was divided into two sets: the control set and the test set (150 μl per set), each of which was assembled with an alcohol dehydrogenase (ADH) reaction buffer (345 μl, containing 360 mM Tris (pH 9.7), 240 mM lysine, 0.24% (v/v) EtOH). […] After incubation at room temperature for 10 minutes, the absorbance at 340 nm of each sample was measured by a microplate reader. To determine the NAD^+ levels in each supernatant or standard sample, the absorbance values of the test set (the ADH catalytic set) were divided by the corresponding values of the control set (the water set), which represented the basal NADH levels.

SIR2/SIRT1 = target: T1, SIR2/SIRT1 (Homo sapiens, UniProt Q96EB6); test: SIR2/SIRT1 activity assay (SIRT1 fluorometric drug discovery kit); format: biochemical; conditions: SIRT1 activity assay kit; FIG. 2K
T1 construct: purchased Enzo Life Sciences, Inc
T1 sequence (Q96EB6 2-747 limits assumed): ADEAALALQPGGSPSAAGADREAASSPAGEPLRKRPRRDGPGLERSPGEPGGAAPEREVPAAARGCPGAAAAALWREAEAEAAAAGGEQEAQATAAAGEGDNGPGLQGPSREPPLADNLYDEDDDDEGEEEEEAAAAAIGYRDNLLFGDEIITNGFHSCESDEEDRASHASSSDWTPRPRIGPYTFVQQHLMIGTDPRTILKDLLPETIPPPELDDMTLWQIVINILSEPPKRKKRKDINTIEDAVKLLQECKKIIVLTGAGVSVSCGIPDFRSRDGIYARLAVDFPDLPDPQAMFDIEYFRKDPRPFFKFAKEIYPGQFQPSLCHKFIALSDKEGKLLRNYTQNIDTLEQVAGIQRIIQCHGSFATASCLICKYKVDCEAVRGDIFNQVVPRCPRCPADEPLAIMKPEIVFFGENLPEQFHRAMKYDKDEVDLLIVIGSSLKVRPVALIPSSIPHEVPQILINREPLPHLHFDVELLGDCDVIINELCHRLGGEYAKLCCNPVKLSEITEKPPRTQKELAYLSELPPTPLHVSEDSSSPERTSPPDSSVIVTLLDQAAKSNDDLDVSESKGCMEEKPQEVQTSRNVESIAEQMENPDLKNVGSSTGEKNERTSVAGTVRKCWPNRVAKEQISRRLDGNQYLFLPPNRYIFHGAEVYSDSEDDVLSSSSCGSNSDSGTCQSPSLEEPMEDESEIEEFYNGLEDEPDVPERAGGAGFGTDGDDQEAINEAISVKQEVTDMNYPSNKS
Procedure: The activity of SIR2/SIRT1 was assessed using a SIRT1 fluorometric drug discovery kit (Enzo Life Sciences, Inc.), in accordance with the manufacturer's instructions. Fluorescence was excited at 360 nm and emitted at 460 nm.

aged C57BL/6J mice [3] = test: Grip strength test; format: in vivo, mouse; conditions: forelimbs, hindlimbs and all four limbs; mid-term and long-term; versus SD group; FIGS. 4E-4G
Procedure: The grip strength of the male C57BL/6J mice was measured at 87 weeks (mid-term) and 111 weeks (long-term) of age using an adjustable metallic grid mounted with a force sensor (DTG-5, DigiTech, JP). To conduct the test, the mice were placed on the aforementioned test device and were held gently by the tail, allowing them to grip the grid with forelimbs, hindlimbs, or four limbs (for measuring 2-paw and 4-paw grip strength, respectively). The device automatically measured and recorded the peak force in grams (g). Five trials were performed for each test, and the mean values were used to determine the grip strength of each mouse. Mid-term: SD, n=30; PN6, n=8; long-term: SD, n=23; PN6, n=8.

aged C57BL/6J mice [4] = test: Intraperitoneal insulin tolerance test (IpITT); format: in vivo, mouse; conditions: 107 weeks of age, versus SD; FIGS. 4J-4K
Procedure: The male C57BL/6J mice, aged 107 weeks, were fasted for […] while having free access to water, and their body weights were measured before the test started. The test was conducted by fasting the mice for 5 hours, and then injecting them with 1.25 U/kg of human recombinant insulin. Blood droplets were collected from the tail vein just prior to the insulin injection (time 0; baseline), and at 15, 30, 60, and 90 minutes following the injection. Blood glucose levels were measured using a blood glucose meter (Accu-Chek Guide; Roche, DE).

In the case of `CCC(CC[C@@H](C)C1CCC2C3CC(=O)[C@H]4C[C@@H](O)CC[C@]4(C)C3CC[C@@]21C)C(C)C` (stereo in doubt) [PN6, (24S)-3β-hydroxy-5α-stigmastan-6-one], the “motor skills (latency to falling)” value (aged C57BL/6J mice [1]) is reported as “steadily improved”, the “NAD^+ content of yeast” value [2] is reported as “significantly increased” and the SIRT1 activity (SIR2/SIRT1) is reported as “directly increase the SIRT1 activity”. The grip strength (aged C57BL/6J mice [3]) was “increased grip strength” and the insulin sensitivity (aged C57BL/6J mice [4]) was “significantly higher”.
